Test results from patent publication US20260297092A1, “PYRAZOLOPYRIMIDINE DERIVATIVES AS INHIBITORS OF NLRP3” (Takeda Pharmaceutical Company Limited, priority 2023, published 2026).

How the values were obtained:
[1] = system: NLRP3 inflammasome (IL-1β production in THP-1 cells); assay: IL-1β TR-FRET Assay (percentage of inhibition at 300 nM, 6 μM or 10 μM); format: cell-based, human; details: Homo sapiens, LPS priming, ATP activation; for inhibition at 6 µM: THP-1, 6 μM, read-out: IL-1β inhibitory rate at 6 μM (%); for inhibition at 0.3 µM: THP-1, 300 nM, read-out: IL-1β inhibitory rate at 300 nM (%)
Outline: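 THP-1 cells were differentiated with 25 ng/mL IFN-γ for 24 h, primed with 50 ng/mL LPS in serum-free medium for 24 h, then given compound for 30 min before 20 mM ATP for 2 h. Supernatant IL-1β was measured by HTRF after 16-24 h at room temperature. Inhibition was normalized between DMSO (high) and 3 μM MCC-950 (low).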

[2] = system: TNF-α (NF-κB pathway, THP-1 cells); assay: TNF-α Assay (IC50); format: cell-based, human; details: Homo sapiens, 600 ng/mL LPS, 3 hours
Outline: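 THP-1 cells differentiated to macrophages with 25 ng/mL IFN for 24 h, plated 40,000/well in serum-free medium, preincubated with compounds 30 min at 37 °C, then stimulated with 600 ng/mL LPS for 3 h. Supernatant TNF-α measured by ELISA; IC50 from four-parameter logistic fit, 100% inhibition defined by TPCA-1.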

Row | SMILES | inhibition at 6 µM [1] | IC50 [2] | inhibition at 0.3 µM [1]
1 | CCOc1nc2nn(-c3c(C)cc(C4CC4)nc3C(F)(F)F)cc2c(=O)[nH]1 [Example 303, 2-[6-cyclopropyl-4-methyl-2-(trifluoromethyl)pyridin-3-yl]-6-ethoxy-2,5-dihydro-4H-pyrazolo[3,4-d]pyrimidin-4-one] | 100% | > 30 µM | 
2 | COCCOc1nc2nn(-c3c(C)cc(Br)cc3C(F)F)cc2c(=O)[nH]1 [Example 215, 2-[4-bromo-2-(difluoromethyl)-6-methylphenyl]-6-(2-methoxyethoxy)-2,5-dihydro-4H-pyrazolo[3,4-d]pyrimidin-4-one] |  | > 30 µM | 105%
3 | COCc1nc2nn(-c3c(C)cc(C)cc3O)cc2c(=O)[nH]1 [Example 28, 2-(2-hydroxy-4,6-dimethylphenyl)-6-(methoxymethyl)-2,5-dihydro-4H-pyrazolo[3,4-d]pyrimidin-4-one] |  | > 30 µM | 101%
4 | CCc1cc(C2(F)CC2)cc(C)c1-n1cc2c(=O)[nH]c(OC)nc2n1 [Example 301, 2-[2-ethyl-4-(1-fluorocyclopropyl)-6-methylphenyl]-6-methoxy-2,5-dihydro-4H-pyrazolo[3,4-d]pyrimidin-4-one] | 98% | > 30 µM | 
5 | CCOc1nc2nn(-c3c(C)cc(Br)cc3C)cc2c(=O)[nH]1 [Example 131, 2-(4-bromo-2,6-dimethylphenyl)-6-ethoxy-2,5-dihydro-4H-pyrazolo[3,4-d]pyrimidin-4-one] |  | > 30 µM | 100%
6 | CCOc1nc2nn(-c3ccc(C4CC4)cc3O)c(C)c2c(=O)[nH]1 [Example 48, 2-(4-cyclopropyl-2-hydroxyphenyl)-6-ethoxy-3-methyl-2,5-dihydro-4H-pyrazolo[3,4-d]pyrimidin-4-one] |  | > 30 µM | 100%
7 | Cc1cc(O)c(-n2cc3c(=O)[nH]c(-c4ccncn4)nc3n2)c(C)c1C [Example 77, 2-(6-hydroxy-2,3,4-trimethylphenyl)-6-(pyrimidin-4-yl)-2,5-dihydro-4H-pyrazolo[3,4-d]pyrimidin-4-one] |  | > 30 µM | 99%
8 | CCOc1nc2nn(-c3ccc(C)cc3O)cc2c(=O)[nH]1 [Example 56, 6-ethoxy-2-(2-hydroxy-4-methylphenyl)-2,5-dihydro-4H-pyrazolo[3,4-d]pyrimidin-4-one] |  | > 30 µM | 100%
9 | CCOc1nc2nn(-c3ccc(C(C)C)cc3O)c(C)c2c(=O)[nH]1 [Example 44, 6-ethoxy-2-[2-hydroxy-4-(propan-2-yl)phenyl]-3-methyl-2,5-dihydro-4H-pyrazolo[3,4-d]pyrimidin-4-one] |  | > 30 µM | 101%
10 | CCOc1nc2nn(-c3c(F)cc(C)cc3C3CC3)cc2c(=O)[nH]1 [Example 105, 2-(2-cyclopropyl-6-fluoro-4-methylphenyl)-6-ethoxy-2,5-dihydro-4H-pyrazolo[3,4-d]pyrimidin-4-one] |  | > 30 µM | 99%
11 | CCOc1nc2nn(-c3c(C)cc(CC)cc3F)cc2c(=O)[nH]1 [Example 122, 6-ethoxy-2-(4-ethyl-2-fluoro-6-methylphenyl)-2,5-dihydro-4H-pyrazolo[3,4-d]pyrimidin-4-one] |  | > 30 µM | 99%
12 | CCOc1nc2nn(-c3c(F)cc(C)cc3Br)cc2c(=O)[nH]1 [Example 57, 2-(2-bromo-6-fluoro-4-methylphenyl)-6-ethoxy-2,5-dihydro-4H-pyrazolo[3,4-d]pyrimidin-4-one] |  | > 30 µM | 99%
13 | COc1nc2nn(-c3c(C)cc(Br)cc3C(F)F)cc2c(=O)[nH]1 [Example 214, 2-[4-bromo-2-(difluoromethyl)-6-methylphenyl]-6-methoxy-2,5-dihydro-4H-pyrazolo[3,4-d]pyrimidin-4-one] |  | > 30 µM | 107%
14 | CCOc1nc2nn(-c3ncc(Br)cc3C)cc2c(=O)[nH]1 [Example 150, 2-(5-bromo-3-methylpyridin-2-yl)-6-ethoxy-2,5-dihydro-4H-pyrazolo[3,4-d]pyrimidin-4-one] |  | > 30 µM | 70%
15 | Cc1cc(C)c(-n2cc3c(=O)[nH]c(OC(C)C(F)(F)F)nc3n2)c(O)c1 (centres unmarked) [Example 43, 2-(2-hydroxy-4,6-dimethylphenyl)-6-[(1,1,1-trifluoropropan-2-yl)oxy]-2,5-dihydro-4H-pyrazolo[3,4-d]pyrimidin-4-one] |  | > 30 µM | 98%
16 | CCOc1nc2nn(-c3c(C)cc(Br)cc3C(F)F)cc2c(=O)[nH]1 [Example 213, 2-[4-bromo-2-(difluoromethyl)-6-methylphenyl]-6-ethoxy-2,5-dihydro-4H-pyrazolo[3,4-d]pyrimidin-4-one] |  | > 30 µM | 104%

Row | SMILES | inhibition at 6 µM [1] | IC50 [2] | inhibition at 0.3 µM [1]
17 | Cc1ccc(-n2cc3c(=O)[nH]c(-c4ccncn4)nc3n2)c(C)c1 [Example 84, 2-(2,4-dimethylphenyl)-6-(pyrimidin-4-yl)-2,5-dihydro-4H-pyrazolo[3,4-d]pyrimidin-4-one] |  | > 30 µM | 97%
18 | CCOc1nc2nn(-c3ccc(C4CC4)cc3F)c(C)c2c(=O)[nH]1 [Example 111, 2-(4-cyclopropyl-2-fluorophenyl)-6-ethoxy-3-methyl-2,5-dihydro-4H-pyrazolo[3,4-d]pyrimidin-4-one] |  | > 30 µM | 95%
19 | Cc1cc(C2CC2)cc(C)c1-n1cc2c(=O)[nH]c(-c3ccncn3)nc2n1 [Example 171, 2-(4-cyclopropyl-2,6-dimethylphenyl)-6-(pyrimidin-4-yl)-2,5-dihydro-4H-pyrazolo[3,4-d]pyrimidin-4-one] |  | > 30 µM | 100%
20 | CCOc1nc2nn(-c3c(F)cc(Br)cc3C(F)(F)F)cc2c(=O)[nH]1 [Example 19, 2-[4-bromo-2-fluoro-6-(trifluoromethyl)phenyl]-6-ethoxy-2,5-dihydro-4H-pyrazolo[3,4-d]pyrimidin-4-one] |  | > 30 µM | 95%
21 | CCOc1nc2nn(-c3ccc(C)cc3C)cc2c(=O)[nH]1 [Example 82, 2-(2,4-dimethylphenyl)-6-ethoxy-2,5-dihydro-4H-pyrazolo[3,4-d]pyrimidin-4-one] |  | > 30 µM | 98%
22 | CCOc1nc2nn(-c3ncc(C4CC4)cc3C(F)(F)F)cc2c(=O)[nH]1 [Example 153, 2-[5-cyclopropyl-3-(trifluoromethyl)pyridin-2-y]-6-ethoxy-2,5-dihydro-4H-pyrazolo[3,4-d]pyrimidin-4-one] |  | > 30 µM | 101%
23 | COCCOc1nc2nn(-c3c(C)cc(Br)cc3C)cc2c(=O)[nH]1 [Example 175, 2-(4-bromo-2,6-dimethylphenyl)-6-(2-methoxyethoxy)-2,5-dihydro-4H-pyrazolo[3,4-d]pyrimidin-4-one] |  | > 30 µM | 112%
24 | Cc1ccc(-n2cc3c(=O)[nH]c(OCC(C)O)nc3n2)c(C)c1 (racemic) [Example 89, 2-(2,4-dimethylphenyl)-6-(2-hydroxypropoxy)-2,5-dihydro-4H-pyrazolo[3,4-d]pyrimidin-4-one] |  | > 30 µM | 79%
25 | Cc1cc(C)c(-n2cc3c(=O)[nH]c(-c4ccnc(C)n4)nc3n2)c(O)c1 [Example 15, 2-(2-hydroxy-4,6-dimethylphenyl)-6-(2-methylpyrimidin-4-yl)-2,5-dihydro-4H-pyrazolo [3,4-d]pyrimidin-4-one] |  | > 30 µM | 99%
26 | COCCOc1nc2nn(-c3c(C)cc(C4CC4)cc3CC(F)(F)F)cc2c(=O)[nH]1 [Example 231, 2-[4-cyclopropyl-2-methyl-6-(2,2,2-trifluoroethyl)phenyl]-6-(2-methoxyethoxy)-2,5-dihydro-4H-pyrazolo[3,4-d]pyrimidin-4-one] | 90% | > 30 µM | 
27 | COC[C@H](C)Oc1nc2nn(-c3c(F)cc(C4CC4)cc3C(F)F)cc2c(=O)[nH]1 [Example 205, 2-[4-cyclopropyl-2-(difluoromethyl)-6-fluorophenyl]-6-{[(2S)-1-methoxypropan-2-yl]oxy}-2,5-dihydro-4H-pyrazolo[3,4-d]pyrimidin-4-one] |  | > 30 µM | 95%
28 | COCCOc1nc2nn(-c3c(F)cc(C4CC4)cc3C(F)F)cc2c(=O)[nH]1 [Example 186, 2-[4-cyclopropyl-2-(difluoromethyl)-6-fluorophenyl]-6-(2-methoxyethoxy)-2,5-dihydro-4H-pyrazolo[3,4-d]pyrimidin-4-one] |  | > 30 µM | 100%
29 | CCOc1nc2nn(-c3ncc(C4CC4)cc3C)cc2c(=O)[nH]1 [Example 154, 2-(5-cyclopropyl-3-methylpyridin-2-yl)-6-ethoxy-2,5-dihydro-4H-pyrazolo[3,4-d]pyrimidin-4-one] |  | > 30 µM | 93%
30 | CCc1nc2nn(-c3c(F)cc(C4CC4)cc3C(F)F)cc2c(=O)[nH]1 [Example 295, 2-[4-cyclopropyl-2-(difluoromethyl)-6-fluorophenyl]-6-ethyl-2,5-dihydro-4H-pyrazolo[3,4-d]pyrimidin-4-one] | 105% | > 30 µM | 
31 | Cc1cc(C)c(-n2cc3c(=O)[nH]c(CC(C)(C)C)nc3n2)c(O)c1 [Example 68, 6-(2,2-dimethylpropyl)-2-(2-hydroxy-4,6-dimethylphenyl)-2,5-dihydro-4H-pyrazolo[3,4-d]pyrimidin-4-one] |  | 0.279 µM | 97%
